# Laboratory results: the C3SDB collision cross section collection
# “And” between values parts separate entries of the source, which are not always exact repeats. Equal entries are not always repeated.
# Columns and labels:
# [1] = instrument: DT, single field, calibrated with Agilent tune mix (Agilent)
# [2] = instrument: DT, stepped-field
Compound,collision cross section (N2) ([2]; [M+Na]+),collision cross section (N2) ([2]; [M+H]+),also measured
Cc1ncc(CO)c(C=O)c1O [Pyridoxal],–,135.42 Å²,collision cross section (N2) ([1]; [M+H]+): 130.5 Å²
c1ncc2[nH]cnc2n1 [Purine],–,125.4 Å²,collision cross section (N2) ([1]; [M+H]+): 121.8 Å²
Cn1cncc1CCN [3-Methylhistamine],–,126.53 Å²,collision cross section (N2) ([1]; [M+H]+): 123.8 Å²
O=c1c(O)c(-c2ccc(O)cc2)oc2cc(O)cc(O)c12 [Kaempferol],187.2 Å²,165.99 Å²,collision cross section (N2) ([1]; [M+H]+): 162.9 Å²; collision cross section (N2) ([1]; [M-H]-): 160.32 Å²
CC/C=C\C/C=C\C/C=C\C/C=C\C/C=C\C/C=C\CCC(=O)O [Docosahexaenoic Acid],185.06 Å²,184.62 Å²,–
CCCCC[C@@H](/C=C/[C@@H]1[C@@H](C/C=C\CCCC(=O)O)[C@@H]2C[C@H]1OO2)OO [Prostaglandin G2],199.3 Å²,–,–
COc1cc(O)c2c(=O)c(-c3ccc(O)cc3)coc2c1 [Prunetin],181.44 Å²,166.26 Å²,–
COc1ccc2cc([C@H](C)C(=O)O)ccc2c1 [Naproxen],163.87 Å²,154.83 Å²,–
Cn1cnc2ncnc-2c1N [1-Methyladenine],–,128.35 Å²,–
c1ccc2cc3c(cc2c1)-c1cccc2cccc-3c12 [Benzo(k)fluoranthene],–,154.36 Å²,–
CCCCCCCCCCCCCCCC(=O)O [Palmitic Acid],185.22 Å²,–,–
NCCCNCCCN [Bis(3-aminopropyl)amine],–,128.52 Å²,–
O=C(O)CNC(=O)c1ccccc1O [2-Hydroxy Hippuric Acid],154.87 Å²,–,–
N[C@@H](Cc1c[nH]c2ccccc12)C(=O)O [L-Tryptophan],–,154.22 Å²,–
CC(C)[C@]12CC(=O)[C@H](C)[C@H]1C2 [Thujone],–,141.82 Å²,–
O=C(O)c1cccnc1C(=O)O [Quinolinic Acid],–,138.98 Å²,–
Cc1ncc(CO)c(C(=O)O)c1O [4-Pyridoxate],151.78 Å²,137.27 Å²,–
CCCCCCCC/C=C/CCCCCCCC(=O)OC[C@H](COP(=O)(O)OC[C@@H](O)CO)OC(=O)CCCCCCC/C=C/CCCCCCCC [PG(18:1/18:1)],285.26 Å² and 289.31 Å²,294.47 Å² and 294.81 Å²,–
COC(=O)c1c(Cl)nn(C)c1S(=O)(=O)NC(=O)Nc1nc(OC)cc(OC)n1 [Halosulfuron-methyl],201.41 Å²,196.48 Å²,–
COc1cc(CC(=O)O)ccc1O [Homovanillic Acid],149.57 Å²,–,–
O=c1ccc2ccc(O)cc2o1 [Umbelliferone],154.46 Å²,–,–

# Second part, led by results:
collision cross section (N2) ([2]; [M+Na]+),collision cross section (N2) ([2]; [M+H]+),Compound,also measured
196.63 Å²,–,CCCCC[C@H](O)/C=C/[C@H]1C(=O)C[C@H](O)[C@@H]1C/C=C\CCCC(=O)O [Prostaglandin D2],collision cross section (N2) ([1]; [M+Na]+): 192.4 Å²; collision cross section (N2) ([1]; [M-H2O-H]-): 186.17 Å²
168.23 Å²,–,N[C@@H](CCC(=O)N[C@@H](CS)C(=O)NCC(=O)O)C(=O)O [Glutathione],collision cross section (N2) ([1]; [M+H]+): 167.4 Å²
198.53 Å²,–,CCCCC[C@H](O)/C=C/[C@H]1[C@H](O)CC(=O)[C@@H]1C/C=C\CCCC(=O)O [Prostaglandin E2],collision cross section (N2) ([1]; [M+Na]+): 196.8 Å²; collision cross section (N2) ([1]; [M-H2O-H]-): 183.57 Å²
212.54 Å²,–,OC[C@H]1O[C@H](O[C@H]2[C@H](O)[C@@H](O)[C@@H](O[C@H]3[C@H](O)[C@@H](O)C(O)O[C@@H]3CO)O[C@@H]2CO)[C@H](O)[C@@H](O)[C@@H]1O (stereo partly specified) [Maltotriose],collision cross section (N2) ([1]; [M+Na]+): 212.7 Å²
236.4 Å²,–,OC[C@H]1O[C@H](OC[C@H]2O[C@H](OC[C@H]3O[C@H](O[C@]4(CO)O[C@H](CO)[C@@H](O)[C@@H]4O)[C@H](O)[C@@H](O)[C@@H]3O)[C@H](O)[C@@H](O)[C@H]2O)[C@H](O)[C@@H](O)[C@H]1O [Stachyose],collision cross section (N2) ([1]; [M+Na]+): 234.1 Å²; collision cross section (N2) ([1]; [M-H]-): 221.12 Å²
208.72 Å²,–,OC[C@H]1O[C@H](OC[C@H]2O[C@H](O[C@]3(CO)O[C@H](CO)[C@@H](O)[C@@H]3O)[C@H](O)[C@@H](O)[C@@H]2O)[C@H](O)[C@@H](O)[C@H]1O [Raffinose],collision cross section (N2) ([1]; [M+H]+): 209 Å²
215.69 Å²,–,OC[C@H]1O[C@@H](O[C@H]2[C@H](O)[C@@H](O)[C@H](O[C@H]3[C@H](O)[C@@H](O)C(O)O[C@@H]3CO)O[C@@H]2CO)[C@H](O)[C@@H](O)[C@@H]1O (stereo partly specified) [Cellotriose],–
180.8 Å²,168.8 Å²,Cn1c(N)nc2c(ncn2[C@@H]2O[C@H](CO)[C@@H](O)[C@H]2O)c1=O [1-Methylguanosine],–
202.08 Å²,–,CCCCC[C@H](O)/C=C/[C@H]1OC(O)C[C@H](O)[C@@H]1C/C=C\CCCC(=O)O (stereo partly specified) [Thromboxane B2],–
143.7 Å²,–,CC(=O)N[C@@H](CC(=O)O)C(=O)O [N-Acetyl-L-aspartic Acid],–
201.71 Å²,174.47 Å²,COc1cc2c(cc1O)CC[C@@H]1[C@@H]2CC[C@]2(C)C(=O)CC[C@@H]12 [2-Methoxyestrone],–
184.42 Å²,165.18 Å²,Oc1cc(O)c2c(c1)O[C@H](c1ccc(O)c(O)c1)[C@@H](O)C2 [Catechin],–
180.73 Å²,173.33 Å²,Nc1ncnc2c1ncn2[C@@H]1O[C@H](COP(=O)(O)O)[C@@H](O)[C@H]1O [Adenosine 5' Monophosphate],–
–,132.73 Å²,O=C(O)C1=CC(=O)[C@@H](O)[C@H](O)C1 [3-Dehydroshikimic Acid],–
159.12 Å²,145.78 Å²,C[C@@H]1NC(=O)N[C@@H]1CCCCCC(=O)O [d-Desthiobiotin],–
197.87 Å²,–,CC/C=C\C[C@H](O)/C=C/C=C\C=C\C=C\[C@@H](O)[C@@H](O)C/C=C\CCC(=O)O [Resolvin D1],–
146.3 Å²,–,C[C@@H]1OC(O)[C@H](O)[C@H](O)[C@H]1O (stereo partly drawn) [L-Rhamnose],–
159.45 Å²,–,O=c1ccn([C@H]2C[C@H](O)[C@@H](CO)O2)c(=O)[nH]1 [Deoxyuridine],–
149.53 Å²,–,CSCC[C@H](NC=O)C(=O)O [N-Formyl-L-methionine],–
144.07 Å²,–,O=C(CO)COP(=O)(O)O [Dihydroxyacetone Phosphate],–
155.27 Å²,150.17 Å²,CC(C)(CO)[C@@H](O)C(=O)NCCC(=O)O [D-Pantothenic Acid],–
175.14 Å²,169.81 Å²,O=c1ccn([C@@H]2O[C@H](COP(=O)(O)O)[C@@H](O)[C@H]2O)c(=O)[nH]1 [Uridine 5'-Monophosphate],–
